By MIC is commonly meant the least concentration at which growth counts as inhibited.

The structures appear in SMILES notation. Converted amounts (≈) assume the structure as drawn. Where only a bound is given, the exact number is not on record here.

Assay type in all cases: functional
The subject of test [1] is Staphylococcus epidermidis. The test can be described thus: Antimicrobial activity against methicillin-susceptible Staphylococcus epidermidis clinical isolate incubated for 16 hrs by CLSI based agar dilution method. On the technique in general: Agar dilution tests growth on a series of plates holding different concentrations.
Test [2] relates to Escherichia coli. As to the kind of experiment: Antimicrobial activity against Escherichia coli ATCC 700603 incubated for 16 hrs by CLSI-based agar dilution method. As to conditions: ATCC 700603, 16 h.
Test [3] concerns Staphylococcus aureus. The test can be described thus: Antimicrobial activity against methicillin-susceptible Staphylococcus aureus clinical isolate incubated for 16 hrs by CLSI based agar dilution method.
Test [4] concerns Klebsiella pneumoniae. The test can be described thus: Antimicrobial activity against Klebsiella pneumoniae ATCC 29522 incubated for 16 hrs by CLSI-based agar dilution method. The following applies: ATCC 29522, 16 h.
Test [5] deals with Staphylococcus epidermidis. As to the kind of experiment: Antimicrobial activity against methicillin-resistant Staphylococcus epidermidis clinical isolate incubated for 16 hrs by CLSI based agar dilution method.
For test [6], the system named is Staphylococcus aureus. As to the kind of experiment: Antimicrobial activity against methicillin-resistant Staphylococcus aureus clinical isolate incubated for 16 hrs by CLSI based agar dilution method.
Test [7] deals with Klebsiella pneumoniae. The test can be described thus: Antimicrobial activity against ESBL-producing Klebsiella pneumoniae ATCC 700603.
For test [8], the system named is Pseudomonas aeruginosa. The test can be described thus: Antimicrobial activity against Pseudomonas aeruginosa ATCC 27853.
Test [9] has as its system Enterobacter cloacae. As to the kind of experiment: Antimicrobial activity against Enterobacter cloacae ATCC 43560.
For test [10], the system named is Acinetobacter calcoaceticus. The test can be described thus: Antimicrobial activity against Acinetobacter calcoaceticus ATCC 19606.
Test [11] deals with Escherichia coli. The test can be described thus: Antimicrobial activity against ESBL non-producing Escherichia coli ATCC 25922.
Test [12] deals with Staphylococcus aureus. As to the kind of experiment: Antimicrobial activity against Staphylococcus aureus ATCC 25923 incubated for 18 to 24 hrs.
In test [13] the test system is Escherichia coli. As to the kind of experiment: Antimicrobial activity against Escherichia coli ATCC 25922 incubated for 18 to 24 hrs.
The subject of test [14] is Staphylococcus aureus. The test can be described thus: Antimicrobial activity against methicillin-resistant Staphylococcus aureus ATCC 12-1 incubated for 18 to 24 hrs.
Test [15] concerns Pseudomonas aeruginosa. As to the kind of experiment: Antimicrobial activity against Pseudomonas aeruginosa ATCC 12-12 incubated for 18 to 24 hrs.
The subject of test [16] is Staphylococcus epidermidis. As to the kind of experiment: Antimicrobial activity against methicillin-resistant Staphylococcus epidermidis 12-1 incubated for 18 to 24 hrs.

`CCn1cc(C(=O)O)c(=O)c2cc(F)c(N3CCN(CC(O)Cn4cc([N+](=O)[O-])nc4Cl)C(C)C3)c(F)c21` (stereo not drawn): the MIC in test [1] was 2 mg/L (≈ 3.6 µM); in test [2], 4 mg/L (≈ 7.21 µM); in [3], 4 mg/L (≈ 7.21 µM); in test [4], 32 mg/L (≈ 57.7 µM); in test [5], 0.125 mg/L (≈ 0.225 µM); in test [6] it was 32 mg/L (≈ 57.7 µM).

In the case of `COc1c(N2C[C@@H]3CCCN(C[C@H](O)Cn4cc([N+](=O)[O-])nc4C)[C@@H]3C2)c(F)cc2c(=O)c(C(=O)O)cn(C3CC3)c12`, the MIC was 0.125 mg/L (≈ 0.214 µM) in test [1]; 2 mg/L (≈ 3.42 µM) in test [2]; 0.125 mg/L (≈ 0.214 µM) in test [3]; 1 mg/L (≈ 1.71 µM) in [4]; 0.03 mg/L (≈ 0.0513 µM) in test [5]; 2 mg/L (≈ 3.42 µM) in test [6].

With `COc1ccccc1-c1nn(CN2CCN(c3cc4c(cc3F)c(=O)c(C(=O)O)cn4[C@@H]3C[C@@H]3F)CC2)c(=S)n1-c1ccccc1`, the MIC in test [7] is 0.78 µM (≈ 0.503 µg/mL); in test [8], 3.1 µM (≈ 2 µg/mL); in test [9], not above 0.05 µM; in test [10] it was 6.21 µM (≈ 4 µg/mL); in test [11], not above 0.05 µM.

For the compound `CCC(C)[C@H](N)C(=O)NC1CN(c2c(F)cc3c(=O)c(C(=O)O)cn(C4CC4)c3c2OC)CC/C1=N\OC` (stereo partly drawn), the MIC in test [12] was found to be 0.5 mg/L (≈ 0.941 µM); in [13], 8 mg/L (≈ 15 µM); in test [14], 64 mg/L (≈ 120 µM); in test [15], 128 mg/L (≈ 241 µM); in test [16], 64 mg/L (≈ 120 µM).

`COc1c(N2C[C@H]3CCCN(C(O)Cn4cc([N+](=O)[O-])nc4Cl)[C@H]3C2)c(F)cc2c(=O)c(C(=O)O)cn(C3CC3)c12` (stereo partly drawn): the MIC in [1] is 0.25 mg/L (≈ 0.423 µM); in test [2], 2 mg/L (≈ 3.38 µM); in test [3], 0.5 mg/L (≈ 0.846 µM); in [4], more than 32 mg/L; in [5], 0.125 mg/L (≈ 0.212 µM); in [6], 16 mg/L (≈ 27.1 µM).

In the case of `O=C(O)c1cn(C2CC2)c2nc(N3CCN(CC(O)Cn4cc([N+](=O)[O-])nc4Cl)CC3)c(F)cc2c1=O` (stereo not drawn), the MIC is 2 mg/L (≈ 3.73 µM) in test [1]; 16 mg/L (≈ 29.9 µM) in test [2]; 4 mg/L (≈ 7.46 µM) in [3]; more than 32 mg/L in [4]; 0.125 mg/L (≈ 0.233 µM) in test [5]; 16 mg/L (≈ 29.9 µM) in [6].

Regarding `COc1cccc(-c2nn(CN3CCN(c4cc5c(cc4F)c(=O)c(C(=O)O)cn5[C@@H]4C[C@@H]4F)CC3)c(=S)n2-c2ccccc2)c1`, the MIC is 1.55 µM (≈ 0.999 µg/mL) in [7]; 6.21 µM (≈ 4 µg/mL) in [8]; not above 0.05 µM in test [9]; 12.4 µM (≈ 8.01 µg/mL) in test [10]; not above 0.05 µM in [11].

As to `COc1c(N2CCCC(N(C)CC(O)Cn3cc([N+](=O)[O-])nc3Cl)C2)c(F)cc2c(=O)c(C(=O)O)cn(C3CC3)c12` (stereo not drawn), the MIC is 0.5 mg/L (≈ 0.843 µM) in test [1]; 4 mg/L (≈ 6.75 µM) in test [2]; 0.5 mg/L (≈ 0.843 µM) in test [3]; more than 32 mg/L in [4]; 0.25 mg/L (≈ 0.422 µM) in test [5]; 8 mg/L (≈ 13.5 µM) in [6].

`CO/N=C1\CCN(c2c(F)cc3c(=O)c(C(=O)O)cn(C4CC4)c3c2OC)CC1NC(=O)[C@H]1CCCN1` (stereo partly drawn): the MIC in [12] stood at 0.25 mg/L (≈ 0.485 µM); in test [13], 4 mg/L (≈ 7.76 µM); in test [14] it was 64 mg/L (≈ 124 µM); in test [15], 64 mg/L (≈ 124 µM); in test [16], 64 mg/L (≈ 124 µM).

In the case of `COc1c(N2C[C@@H]3CCCN(CC(O)Cn4cc([N+](=O)[O-])nc4C)[C@@H]3C2)c(F)cc2c(=O)c(C(=O)O)cn(C3CC3)c12` (stereo partly drawn), the MIC was 0.25 mg/L (≈ 0.428 µM) in test [1]; 4 mg/L (≈ 6.84 µM) in test [2]; 0.5 mg/L (≈ 0.855 µM) in [3]; 8 mg/L (≈ 13.7 µM) in test [4]; 0.125 mg/L (≈ 0.214 µM) in [5]; 8 mg/L (≈ 13.7 µM) in test [6].

On to `CO/N=C1\CCN(c2c(F)cc3c(=O)c(C(=O)O)cn(C4CC4)c3c2OC)CC1NC(=O)[C@H](N)Cc1ccccc1` (stereo partly drawn), for which the MIC in [12] was 0.125 mg/L (≈ 0.221 µM); in test [13] it was 16 mg/L (≈ 28.3 µM); in [14], 64 mg/L (≈ 113 µM); in test [15], 128 mg/L (≈ 226 µM); in test [16] it was 64 mg/L (≈ 113 µM).

On to `CCn1cc(C(=O)O)c(=O)c2cc(F)c(N3CCN(CC(O)Cn4cc([N+](=O)[O-])nc4Cl)CC3)nc21` (stereo not drawn), for which the MIC in test [1] is 2 mg/L (≈ 3.82 µM); in test [2] it was more than 32 mg/L; in test [3] it was 16 mg/L (≈ 30.5 µM); in [4], more than 32 mg/L; in [5], 4 mg/L (≈ 7.63 µM); in [6], 32 mg/L (≈ 61.1 µM).

Consider `CO/N=C1\CCN(c2c(F)cc3c(=O)c(C(=O)O)cn(C4CC4)c3c2OC)CC1NC(=O)[C@H](N)CO` (stereo partly drawn), for which the MIC was 1 mg/L (≈ 1.98 µM) in test [12]; 16 mg/L (≈ 31.7 µM) in [13]; 64 mg/L (≈ 127 µM) in [14]; 128 mg/L (≈ 253 µM) in [15]; 64 mg/L (≈ 127 µM) in test [16].

With `COc1c(N2CCCC(N(C)C[C@@H](O)Cn3cc([N+](=O)[O-])nc3C)C2)c(F)cc2c(=O)c(C(=O)O)cn(C3CC3)c12` (stereo partly drawn), the MIC in [1] is 1 mg/L (≈ 1.75 µM); in [2], 8 mg/L (≈ 14 µM); in [3] it was 1 mg/L (≈ 1.75 µM); in test [4] it was 16 mg/L (≈ 27.9 µM); in test [5], 0.25 mg/L (≈ 0.437 µM); in [6] it was 32 mg/L (≈ 55.9 µM).

The record behind these values is ChEMBL document CHEMBL4602605, “Fluoroquinolones structural and medicinal developments (2013-2018): Where are we now?” (Bioorg Med Chem, 2019).
